# Reference: patent US7375083B2, “Pharmaceutical compositions for prevention of overdose or abuse” (Shire LLC, priority 2003, dated 2008)
# Values joined by “and” are separate entries in the source; they are usually repeats but may differ in a detail not shown here. Equal values may be shown once. Read-outs that look alike come from different tables or passages of the source.
# Key:
# [1] = Crossover pharmacokinetics in dogs, oral vs 30-min intravenous infusion, LC-MS/MS; type: in vivo, male beagle dogs; details: for AUC(0-inf): read-out: AUC(inf) of L-lysine-d-amphetamine; for Cmax: read-out: Cmax of L-lysine-d-amphetamine; for MRT: read-out: MRT of L-lysine-d-amphetamine; for Vd: read-out: Vss of L-lysine-d-amphetamine; for half-life: read-out: t1/2 of L-lysine-d-amphetamine (converted)
# Source text: This was a non-randomized, two-treatment crossover study. All animals were maintained on their normal diet and were fasted overnight prior to each dose administration. L-lysine-d-amphetamine dose was based on the body weight measured on the morning of each dosing day. The actual dose delivered was based on syringe weight before and after dosing. Serial blood samples were obtained from each animal by direct venipuncture of a jugular vein using vacutainer tubes containing sodium heparin as the anticoagulant. Derived plasma samples were stored frozen until shipment to the Quest Pharmaceutical Services, Inc. (Newark, Del.). Pharmacokinetic analysis of the plasma assay results was conducted by Calvert. Animals were treated as follows:
# Oral: The test article was administered to each animal via a single oral gavage. On Day 1, animals received the oral dose by gavage using an esophageal tube attached to a syringe. Dosing tubes were flushed with approximately 20 mL tap water to ensure the required dosing solution was delivered.
# Intravenous: On Day 8, animals received L-lysine-d-amphetamine as a single 30-minute intravenous infusion into a cephalic vein.
# Blood: Serial blood samples (2 mL) were collected using venipuncture tubes containing sodium heparin. Blood samples were taken at 0, 0.25, 0.5, 1, 2, 4, 8, 12, 24, 48, and 72 hours post-oral dosing. […] Collected blood samples were chilled immediately.
# Plasma: Plasma samples were obtained by centrifugation of blood samples. Duplicate plasma samples (about 0.2 mL each) were transferred into prelabeled plastic vials and stored frozen at approximately −70° C.
# Microsoft Excel (Version 6, Microsoft Corp., Redmond, Wash.) was used for calculation of mean plasma concentration and graphing of the plasma concentration-time data. Pharmacokinetic analysis (non-compartmental) was performed using the WinNonlin® software program (Version 4.1, Pharsight, Inc. Mountain View, Calif.). The maximum concentration, Cmax, and the time to Cmax, Tmax, were observed values. The area under the plasma concentration-time curve (AUC) was determined using linear-log trapezoidal rules. The apparent terminal rate constant (λz) was derived using linear least-squares regression with visual inspection of the data to determine the appropriate number of points (minimum of 3 data points) for calculating λz. The AUC(0-inf) was calculated as the sum of AUC(0-t) and Cpred/λz, where Cpred was the predicted concentration at the time of the last quantifiable concentration. The plasma clearance (CL/F) was determined as the ratio of Dose/AUC (0-inf). The mean residence time (MRT) was calculated as the ratio of AUMC(0-inf)/AUC (0-inf), where AUMC(0-inf) was the area under the first moment curve from the time zero to infinity. The volume of distribution at steady state (Vss) was estimated as CL*MRT. Half-life was calculated as In2/λz. The oral bioavailability (F) was calculated as the ratio of AUC(0-inf) following oral dosing to AUC(0-inf) following intravenous dosing. Descriptive statistics (mean and standard deviation) of the pharmacokinetic parameters were calculated using Microsoft Excel.
# Blood samples were collected up to 24 and 72 hour after the intravenous and oral does, respectively. Plasma samples were analyzed using a LC-MS/MS assay which provided an LLOQ of 1 ng/mL for both analytes.
# [2] = Serum and brain tissue levels after oral administration, LC/MS/MS; details: rat, 5 mg/kg d-amphetamine base
# [3] = male beagle dogs 1-3 and Mean, 30-min iv infusion, 2 mg/kg/h (free form), 2 mg/kg
# [4] = male beagle dogs 1-3 and Mean, oral, 2 mg/kg (free form), 2 mg/kg
# [5] = male, beagle, dog, plasma, iv, 1 mg/kg, male beagle dog, IV, 1 mg/kg d-amphetamine base, mean
# [6] = male, beagle, dog, plasma, iv, 2 mg/kg, male beagle dogs 1-3 and Mean, 30-min iv infusion, 2 mg/kg/h (free form)
# [7] = male, beagle, dog, plasma, po, 1 mg/kg, male beagle dog, oral, 1 mg/kg d-amphetamine base, mean
compound,measurement,setting,value
"CC(Cc1ccccc1)NC(=O)C(N)CCCCN [L-lysine-d-amphetamine, 2,6-diaminohexanoic acid-(1-methyl-2-phenylethyl)-amide]",Tmax,"[1]; dog, plasma, male beagle dogs 1-3 and median, 30-min iv infusion, 2 mg/kg/h (free form), read-out: Tmax of L-lysine-d-amphetamine",29.4 min
same,Tmax,"[1]; dog, plasma, male beagle dogs 1-3 and median, oral, 2 mg/kg (free form), read-out: Tmax of L-lysine-d-amphetamine",30 min
same,AUC(0-t) of L-lysine-d-amphetamine,[1]; [3],898.2 ng·h/mL
same,AUC(inf) of L-lysine-d-amphetamine,[1]; [3],900.2 ng·h/mL and 1076.1 ng·h/mL
same,CL of L-lysine-d-amphetamine,[1]; [3],37.03 mL/min/kg and 30.98 mL/min/kg
same,Cmax of L-lysine-d-amphetamine,[1]; [3],1470.3 ng/mL
same,MRT of L-lysine-d-amphetamine,[1]; [3],21.6 min and 19.2 min
same,Vss of L-lysine-d-amphetamine,[1]; [3],0.8074 L/kg
same,t1/2 of L-lysine-d-amphetamine,[1]; [3],43.2 min
same,AUC(0-t) of L-lysine-d-amphetamine,[1]; [4],318.0 ng·h/mL
same,AUC(inf) of L-lysine-d-amphetamine,[1]; [4],312.0 ng·h/mL and 277.1 ng·h/mL
same,CL/F of L-lysine-d-amphetamine,[1]; [4],106.8 mL/min/kg and 120.3 mL/min/kg
same,F of L-lysine-d-amphetamine,[1]; [4],34.3% and 34.0% and 30.8%
same,MRT of L-lysine-d-amphetamine,[1]; [4],40.8 min
same,t1/2 of L-lysine-d-amphetamine,[1]; [4],27 min and 14.4 min
same,AUC(0-inf),[1]; [5],964 ng·h/mL
same,Cmax,[1]; [5],1650 ng/mL
same,MRT,[1]; [5],19.8 min
same,Vd,[1]; [5],0.689 L/kg
same,half-life,[1]; [5],52.8 min
same,Tmax,"[1]; male, beagle, dog, plasma, iv, 1 mg/kg, read-out: Tmax of L-lysine-d-amphetamine (median)",29.4 min
same,AUC(0-t),"[1]; male, beagle, dog, plasma, iv, 2 mg/kg, male beagle dogs 1-3 and Mean, 30-min iv infusion, 2 mg/kg/h (free form), read-out: AUC(0-t) of L-lysine-d-amphetamine",914 ng·h/mL
same,AUC(0-inf),[1]; [6],917 ng·h/mL
same,clearance,"[1]; male, beagle, dog, plasma, iv, 2 mg/kg, male beagle dogs 1-3 and Mean, 30-min iv infusion, 2 mg/kg/h (free form), read-out: CL of L-lysine-d-amphetamine (converted)",36.4 mL/min/kg
same,Cmax,[1]; [6],1650 ng/mL
same,MRT,[1]; [6],18 min
same,Vd,[1]; [6],0.656 L/kg
same,half-life,[1]; [6],63 min
same,AUC(0-inf),[1]; [7],319 ng·h/mL
same,CL/F,"[1]; male, beagle, dog, plasma, po, 1 mg/kg, male beagle dog, oral, 1 mg/kg d-amphetamine base, mean, read-out: CL/F of L-lysine-d-amphetamine (converted)",106 mL/min/kg
same,Cmax,[1]; [7],328 ng/mL
same,MRT,[1]; [7],48.6 min
same,half-life,[1]; [7],23.4 min
same,bioavailability,"[1]; male, beagle, dog, plasma, po, 1 mg/kg, read-out: F (absolute oral bioavailability) of L-lysine-d-amphetamine",33%
same,Tmax,"[1]; male, beagle, dog, plasma, po, 1 mg/kg, read-out: Tmax of L-lysine-d-amphetamine (median)",30 min
same,Intact conjugate in serum,[2],present in appreciable amounts in serum
